Reference: patent publication US11014905B2, “2,6-disubstituted pyridine derivative” (Sumitomo Dainippon Pharma Co., Ltd., priority 2017, dated 2021)
pEC50, pIC50, pKi: −log10 of the molar value.

How the values were obtained:
[1] = Test 3-1: metabolic stability test of human liver microsome; assay type: in vitro ADME; details: human liver microsome 0.1 mg/mL, test compound 0.1 μmol/L, 37° C., 30 minutes
Description: Test 3-1: Metabolic Stability Test of Human Liver Microsome
(§1) The stability of the present compounds for human liver microsome metabolism was evaluated as mentioned below. The used human liver microsome was obtained from Xenontech. Human liver microsome, NADPH, and each test compound were mixed in 25 mmol/L phosphate buffer solution (pH 7.4) to adjust each concentration as shown below, and the mixture was incubated at 37° C. for 30 minutes. • human liver microsome: 0.1 mg/mL • NAPDH: 3.2 mmol/L • test compound: 0.1 μmol/L
(§2) The residual ratio of the test compound in each sample after the incubation for 30 minutes was measured with a LC-MS, and the metabolic stability of human liver microsome was calculated about each test compound with the following formula. Metabolic stability of human liver microsome(mL/min/mg protein)=−LN(residual ratio)/“reaction time”/“concentration of human liver microsome”

[2] = Test 3-2: metabolic stability test of human liver microsome; assay type: in vitro ADME; details: human liver microsome 0.5 or 1.0 mg/mL, test compound 0.1 μmol/L, 37° C., 30 minutes
Description: Test 3-2: Metabolic Stability Test of Human Liver Microsome
as §1, with “In order to evaluate the metabolic stability of human liver microsomes more precisely, the stability” for “The stability”, “evaluated with a suitable concentration of human liver microsome,” for “evaluated”, “microsome: 0.5 or 1.0” for “microsome: 0.1”
as §2

Wistar male rat = experiment: Test 9: microdialysis test (intracerebral monoamine release); assay type: in vivo; details: in the combination administration with sertraline or in single administration
Description: Test 9: Microdialysis Test
The effect of the present compound for the release amount of intracerebral monoamine was evaluated in a manner mentioned below.
8-Week-old Wistar male rat was fixed on a brain stereotaxic apparatus under anesthesia. The scalp was incised, the subcutaneous tissue was removed, the position of the bregma was measured, and the installation position of a guide cannula was calculated (the position of the orbitofrontal cortex which defined according to the brain stereotaxic coordinates of Paxinos & Watson (2.0 mm right, 4.2 mm anterior from bregma)). The skull was drilled with a dental drill at the installation position of the guide cannula, and an anchor screw was set about 1 cm posterior to the hole. The guide cannula was set and fixed with a dental cement, and then the scalp was sutured. The animal was released from the brain stereotaxic apparatus, and was moved back to the breeding cage. In the event of the test, the rat was put in an acrylic observable cage, and a dialysis probe was inserted along the guide cannula to connect to a free-moving tube. With an infusion pump, Ringer solution was perfused at 2 μL/min, and the dialysis solution was recovered at 20-minute intervals. […] The recovered dialysis solutions were analyzed with a HPLC-ECD system to determine the contents of norepinephrine (NE), dopamine (DA), and serotonin (5-HT).

human D2 receptor = human D2 receptor (Homo sapiens (Human), UniProt P14416); experiment: Test 2: binding activity to human D2 receptor ([3H] spiperone); details: CHO cell membrane fraction, read-out: D2 binding affinity (Ki value)
Description: (§3) Test 2: Evaluation of Binding Activity to Human 5-HT1A Receptor, Human D4 Receptor, and Human D2 Receptor
(§4) CHO cell membrane fraction in which human 5-HT1A receptor, human D4 receptor, and human D2 receptor were expressed was purchased from PerkinElmer Co., Ltd. In the evaluation test of binding, the test compound dissolved in DMSO, each receptor membrane preparation diluted with buffer solution, and [3H] […] The nonspecific binding to each receptor was evaluated by a competition binding experiment in the presence of 10 μmol/L 8-OH-DPAT, 10 μmol/L dopamine, or 10 μmol/L spiperone, respectively.

human D4 receptor [3] = biological target: T1, human D4 receptor (Homo sapiens (Human), UniProt P21917); experiment: Test 1: agonistic activity for human D4 receptor (aequorin luminescence, CHO-K1); assay type: cell-based; details: for pEC50: CHO-K1 cell transiently expressing aequorin, Ga16 and receptor
Description: (§5) Test 1: Evaluation of Agonistic Activity for Human 5-HT1A Receptor and Human D4 Receptor
(§6) Aequorin, Ga16 proteins, and each receptor were transiently expressed in CHO-K1 cell (Chinese hamster ovary), and seeded to 384-well plate. The plate was incubated in a CO2 incubator at 37° C. for 24 hours. Each example compound dissolved in DMSO was added thereto, and the change of luminescence amount was measured with Hamamatsu FDSS/μCELL System (Hamamatsu Photonics).

human 5-HT1A receptor [4] = biological target: T2, human 5-HT1A receptor (Homo sapiens (Human), UniProt P08908); experiment: Test 1: agonistic activity for human 5-HT1A receptor (aequorin luminescence, CHO-K1); assay type: cell-based; details: for pEC50: CHO-K1 cell transiently expressing aequorin, Ga16 and receptor
Description: as §5, §6

human D4 receptor [5] = biological target: T1, human D4 receptor; experiment: Test 2: binding activity to human D4 receptor ([3H] dopamine); details: CHO cell membrane fraction, read-out: D4 binding affinity (Ki value)
Description: as §3, §4

human 5-HT1A receptor [6] = biological target: T2, human 5-HT1A receptor; experiment: Test 2: binding activity to human 5-HT1A receptor ([3H] 8-OH-DPAT); details: CHO cell membrane fraction, read-out: 5-HT1A binding affinity (Ki value)
Description: as §3, §4

hERG channel = hERG channel (Homo sapiens (Human), UniProt Q12809); experiment: Test 5-2: activity for inhibiting hERG channel (whole-cell patch clamp, Qube); assay type: cell-based; details: hERG-CHO cell, auto patch clamp, read-out: hERG inhibition IC50
Description: Test 5-2: Evaluation of Activity for Inhibiting hERG Channel
The activity of the present compound for inhibiting hERG channel was measured by whole-cell patch clamp method with auto patch clamp system, using CHO cell wherein hERG channel involved in human rapidly activating delayed rectifier potassium current (IKr) was forcibly expressed.
hERG-CHO cell purchased from ChanTest was incubated at 37° C. in a CO2 incubator, and the cell was exfoliated from the flask with trypsin to prepare a cell suspension, shortly before the hERG current measurement.
Extracellular fluid: 2 mmol/L CaCl2, 1 mmol/L MgCl2, 10 mmol/L HEPES, 4 mmol/L KCl, 145 mmol/L NaCl, 10 mmol/L glucose
Intracellular fluid: 10 mmol/L HEPES, 10 mmol/L EGTA, 20 mmol/L KCl, 130 mmol/L KF […]
The cell suspension, the extracellular fluid, the intracellular fluid, and the measurement plate were set in an auto patch clamp system, and the hERG current was measured by whole-cell patch clamp method. […] The test was carried out applying increscently 4 concentrations of each test compound, and the average of the peak tail currents that were obtained by the last 3 stimulations in each applied concentration was made to be the evaluated data. By using the current inhibition rate for the pre-applied current at each concentration of each test compound, IC50 value was calculated by Hill equation with the software.

[7] = CHO-K1, 100% = 10 μmol/L endogenous ligand
[8] = 100% = 10 μmol/L endogenous ligand

T1 sequence (P21917 whole entry): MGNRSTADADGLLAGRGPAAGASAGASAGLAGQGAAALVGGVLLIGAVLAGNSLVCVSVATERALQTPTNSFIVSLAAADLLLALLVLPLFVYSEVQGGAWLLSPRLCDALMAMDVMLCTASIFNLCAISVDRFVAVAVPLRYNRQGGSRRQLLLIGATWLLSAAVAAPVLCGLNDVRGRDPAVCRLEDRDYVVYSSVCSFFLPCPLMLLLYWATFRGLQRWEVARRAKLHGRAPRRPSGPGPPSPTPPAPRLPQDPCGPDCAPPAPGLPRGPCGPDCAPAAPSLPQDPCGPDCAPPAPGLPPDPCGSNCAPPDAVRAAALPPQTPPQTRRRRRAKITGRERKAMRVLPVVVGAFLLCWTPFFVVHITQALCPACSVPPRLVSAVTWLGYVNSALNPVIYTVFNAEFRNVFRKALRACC
T2 sequence (P08908 whole entry): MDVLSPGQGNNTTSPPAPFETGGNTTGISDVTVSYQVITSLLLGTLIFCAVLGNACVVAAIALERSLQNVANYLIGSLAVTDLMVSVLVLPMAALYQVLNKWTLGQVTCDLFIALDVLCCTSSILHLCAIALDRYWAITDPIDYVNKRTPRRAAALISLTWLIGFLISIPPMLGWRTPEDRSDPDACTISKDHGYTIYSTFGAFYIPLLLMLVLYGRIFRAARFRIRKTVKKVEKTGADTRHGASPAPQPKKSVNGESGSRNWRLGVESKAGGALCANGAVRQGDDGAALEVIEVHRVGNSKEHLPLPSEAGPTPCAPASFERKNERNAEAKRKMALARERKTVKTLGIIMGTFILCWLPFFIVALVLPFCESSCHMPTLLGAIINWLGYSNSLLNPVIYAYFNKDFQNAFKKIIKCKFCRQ
Chain of hERG channel (Q12809 whole entry): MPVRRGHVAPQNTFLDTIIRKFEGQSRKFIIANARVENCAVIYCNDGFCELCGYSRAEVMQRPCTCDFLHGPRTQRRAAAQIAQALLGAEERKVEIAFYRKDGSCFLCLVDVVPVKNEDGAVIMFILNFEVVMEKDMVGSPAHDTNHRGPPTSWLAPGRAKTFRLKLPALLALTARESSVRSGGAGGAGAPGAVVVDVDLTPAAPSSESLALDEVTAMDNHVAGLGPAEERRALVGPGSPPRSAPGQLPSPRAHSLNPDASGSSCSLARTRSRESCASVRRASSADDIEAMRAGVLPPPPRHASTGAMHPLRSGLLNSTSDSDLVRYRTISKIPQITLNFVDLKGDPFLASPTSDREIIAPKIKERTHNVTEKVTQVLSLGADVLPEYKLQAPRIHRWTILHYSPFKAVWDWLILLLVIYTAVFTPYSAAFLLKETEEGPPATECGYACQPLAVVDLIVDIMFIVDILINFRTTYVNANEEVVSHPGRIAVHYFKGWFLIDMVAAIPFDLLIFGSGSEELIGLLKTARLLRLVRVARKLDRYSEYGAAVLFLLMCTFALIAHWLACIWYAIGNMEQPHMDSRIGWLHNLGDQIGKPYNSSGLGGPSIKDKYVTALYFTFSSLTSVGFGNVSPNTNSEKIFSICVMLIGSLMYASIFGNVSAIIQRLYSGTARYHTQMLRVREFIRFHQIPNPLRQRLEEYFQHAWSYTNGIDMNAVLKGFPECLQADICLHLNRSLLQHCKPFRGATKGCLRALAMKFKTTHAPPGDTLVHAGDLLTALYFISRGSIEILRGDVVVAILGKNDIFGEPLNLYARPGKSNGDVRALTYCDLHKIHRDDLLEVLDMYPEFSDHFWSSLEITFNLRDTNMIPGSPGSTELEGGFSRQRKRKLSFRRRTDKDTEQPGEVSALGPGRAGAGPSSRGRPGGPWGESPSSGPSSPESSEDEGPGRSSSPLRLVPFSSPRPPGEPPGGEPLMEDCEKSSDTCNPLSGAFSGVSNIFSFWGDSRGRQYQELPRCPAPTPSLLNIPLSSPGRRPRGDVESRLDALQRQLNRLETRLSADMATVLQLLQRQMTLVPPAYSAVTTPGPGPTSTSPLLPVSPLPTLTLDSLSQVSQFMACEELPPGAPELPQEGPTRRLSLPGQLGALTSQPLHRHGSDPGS
Chain of human D2 receptor (P14416 whole entry): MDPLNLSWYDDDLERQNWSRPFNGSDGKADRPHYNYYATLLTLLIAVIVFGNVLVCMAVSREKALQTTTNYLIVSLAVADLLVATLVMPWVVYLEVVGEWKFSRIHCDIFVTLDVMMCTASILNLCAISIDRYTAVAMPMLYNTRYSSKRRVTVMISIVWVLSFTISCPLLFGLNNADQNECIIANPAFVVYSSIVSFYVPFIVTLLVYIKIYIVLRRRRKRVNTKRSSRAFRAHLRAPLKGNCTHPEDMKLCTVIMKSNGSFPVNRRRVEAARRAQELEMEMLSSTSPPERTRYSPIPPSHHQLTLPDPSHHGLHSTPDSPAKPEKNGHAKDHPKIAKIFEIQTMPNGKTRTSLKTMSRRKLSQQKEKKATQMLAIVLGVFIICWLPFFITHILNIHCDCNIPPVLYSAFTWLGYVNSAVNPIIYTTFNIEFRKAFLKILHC

Compound	Metabolic stability of human liver microsome [1] [mL/min/mg protein]	further results
O=C(NCCN1CCC(c2cccc(C(F)(F)F)n2)CC1)C1CCC(F)(F)CC1 [Example 1, 4,4-Difluoro-N-(2-{4-[6-(trifluoromethyl)pyridin-2-yl]piperidin-1-yl}ethyl)cyclohexane-carboxamide]	0.073	Metabolic stability of human liver microsome [2]: 0.031 mL/min/mg protein
O=C(NCCN1CCC(c2cccc(C(F)(F)F)n2)CC1)C1CCCOC1 (stereo not shown) [Example 2]	0.069	
Cc1cccc(C2CCN(CCNC(=O)C3CC4CCC3O4)CC2)n1 (stereo not shown) [Example 3]	<0.01	
Cc1cccc(C2CCN(CCNC(=O)C3CCC(F)(F)CC3)CC2)n1 [Example 4]	<0.01	
COCC(C)(C)C(=O)NCCN1CCC(c2cccc(C)n2)CC1 [Example 5]	<0.01	
COCC(C)(C)C(=O)NCCN1CCC(c2cccc(C(F)(F)F)n2)CC1 [Example 6]	<0.01	
Cc1cccc(C2CCN(CCNC(=O)C3CCOCC3)CC2)n1 [Example 8, N-{2-[4-(6-Methylpyridin-2-yl)piperidin-1-yl]ethyl}-tetrahydro-2H-pyran-4-carboxamide]	0.017	Metabolic stability of human liver microsome [2]: 0.023 mL/min/mg protein
CC(C)(C)C(=O)NCCN1CCC(c2cccc(C(F)(F)F)n2)CC1 [Example 9, 2,2-dimethyl-N-(2-{4-[6-(trifluoromethyl)pyridin-2-yl]piperidin-1-yl}ethyl)propanamide]	0.025	Metabolic stability of human liver microsome [2]: 0.016 mL/min/mg protein
Cc1cccc(C2CCN(CCNC(=O)C(C)(C)C)CC2)n1 [Example 10]	0.015	
O=C(NCCN1CCC(c2cccc(C(F)(F)F)n2)CC1)C1CCOCC1 [Example 11, N-(2-{4-[6-(Trifluoromethyl)pyridin-2-yl]piperidin-1-yl}ethyl)-tetrahydro-2H-pyran-4-carboxamide]		effect on serotonin content (Wistar male rat): did not decrease the serotonin content; Metabolic stability of human liver microsome [2]: 0.0075 mL/min/mg protein
Cc1cccc(C2=CCN(CCNC(=O)[C@H]3C[C@@H]4CC[C@H]3O4)CC2)n1 [Example 13]	<0.05	
Cc1cccc(C2=CCN(CCNC(=O)C3CCC(F)(F)CC3)CC2)n1 [Example 14]	0.084	
Cc1cccc(C2CCN(CCNC(=O)C3CCCOC3)CC2)n1 (stereo not shown) [Example 15]	<0.05	
O=C(NCCN1CC=C(c2cccc(C(F)(F)F)n2)CC1)C1CCCOC1 (stereo not shown) [Example 16, N-{2-[6-(Trifluoromethyl)-3′,6′-dihydro[2,4′-bipyridin]-1′(2′H)-yl]ethyl}-tetrahydro-2H-pyran-3-carboxamide]	<0.05	
COCC(C)(C)C(=O)NCCN1CC=C(c2cccc(C(F)(F)F)n2)CC1 [Example 18]	<0.05	
Cc1cccc(C2CCN(CCNC(=O)C3CCCCO3)CC2)n1 (stereo not shown) [Example 20]	<0.05	pKi (human D2 receptor): < 5.00; Emax (human D4 receptor [3]; [7]): 60%; pEC50 (human D4 receptor [3]): 7.82; Emax (human 5-HT1A receptor [4]; [7]): 40%; pEC50 (human 5-HT1A receptor [4]): 7.24; pKi (human D4 receptor [5]): 7.04; pKi (human 5-HT1A receptor [6]): 8.17; pIC50 (hERG channel): < 5.00
O=C(NCCN1CCC(c2cccc(C(F)(F)F)n2)CC1)[C@H]1C[C@@H]2CC[C@H]1O2 [Example 21]	<0.05	
O=C(NCCN1CCC(c2cccc(C(F)(F)F)n2)CC1)C1CCOC1 (stereo not shown) [Example 25]	<0.05	pKi (human D2 receptor): 5.48; D4 agonistic activity Emax (human D4 receptor [3]; [8]): 49%; pEC50 (human D4 receptor [3]): 7.52; 5-HT1A agonistic activity Emax (human 5-HT1A receptor [4]; [8]): 46%; pEC50 (human 5-HT1A receptor [4]): 7.17; pKi (human 5-HT1A receptor [6]): 7.70; pIC50 (hERG channel): < 5.00
O=C(NCCN1CCC(c2cccc(OC(F)(F)F)n2)CC1)C1CCOCC1 [Example 28]	<0.05	
Cc1cccc(C2=CCN(CCNC(=O)C3CCOCC3)CC2)n1 [Example 29, N-[2-(6-Methyl-3′,6′-dihydro[2,4′-bipyridin]-1′(2′H)-yl)ethyl]-tetrahydro-2H-pyran-4-carboxamide]	<0.05	
CC(C)(C)C(=O)NCCN1CC=C(c2cccc(C(F)(F)F)n2)CC1 [Example 31, 2,2-Dimethyl-N-{2-[6-(trifluoromethyl)-3′,6′-dihydro[2,4′-bipyridin]-1′(2′H)-yl]ethyl}propanamide]	<0.05	
COc1cccc(C2CCN(CCNC(=O)C3CCOCC3)CC2)n1 [Example 33]	<0.05	
O=C(NCCN1CCC(c2cccc(C(F)F)n2)CC1)C1CCOCC1 [Example 34]	<0.05	
CN(C)c1cccc(C2CCN(CCNC(=O)C3CCOCC3)CC2)n1 [Example 38, N-(2-{4-[6-(Dimethylamino)pyridin-2-yl]piperidin-1-yl}ethyl)-tetrahydro-2H-pyran-4-carboxamide]	<0.05	
